In ChEMBL document CHEMBL1156392, “New sesquiterpene derivatives from the red alga Laurencia scoparia. Isolation, structure determination, and anthelmintic activity” (J Nat Prod, 2001):

test system: Nippostrongylus brasiliensis; experiment: Anthelmintic activity against Nippostrongylus brasiliensis; type: functional, organism-based; conditions: not given

Row | Compound | Activity [µM]
1 | C=C1C[C@@H](O)[C@@H](Br)C(C)(C)[C@@]12C=C/C(=C/Br)CC2 | <100
2 | C=C1C[C@@H](O)[C@@H](Br)C(C)(C)[C@@]12C=CC(=O)CC2 | <100
3 | C=C1C[C@@H](O)[C@@H](Br)C(C)(C)[C@@]12C=C/C(=C\Br)CC2 | <100
4 | CCCCCCCCCCCCCC/C=C(/C=O)CCCCCCCCCCCCC | <100
5 | C=C1C[C@@H](O)[C@H](Br)C(C)(C)[C@]12CC=C(C)CC2 | <100
6 | CC1=CC(=O)CC(C)(C)[C@@]12C=CC(=O)CC2 | <100
7 | C=C1CC[C@@H](Br)C(C)(C)[C@]12CC[C@](C)(Br)[C@@H](Cl)C2 | <100
8 | C=C1C[C@H](O)[C@@H](Br)C(C)(C)[C@@]12C=C[C@](C)(O)CC2 [ISORIGIDOL] | <100

same assay, conditions: Nippostrongylus brasiliensis

Row | Compound | EC50 [nM]
9 | CCCSc1ccc2[nH]c(NC(=O)OC)nc2c1 [ALBENDAZOLE] | 340
10 | COC(=O)Nc1nc2cc(Sc3ccccc3)ccc2[nH]1 [FENBENDAZOLE] | 120
11 | c1ccc([C@H]2CN3CCSC3=N2)cc1 [LEVAMISOLE] | 210
